Like-named read-outs stand apart in the source and are kept apart here. Blank lines part the entries; values can stand above or below the compound they belong to.
Assays:
writhing = writhing test (analgesic activity); assay type: in vivo, mouse; conditions: for ED50: Mus musculus, ip
beer yeast induced fever = beer yeast induced fever (antipyretic activity); assay type: in vivo
gastric mucous = assay type: in vivo, rat
From the text: In the gastric tolerance test, the product was compared with aspirin and phenylbutazone on the rat, with oral administration.

solubility = assay type: physicochemical
carrageenin oedema = carrageenin oedema method (anti-inflammatory activity); assay type: in vivo; conditions: Rattus norvegicus; oral
acute toxicity, mouse = conditions: in vivo
From the text: (§1) The acute toxicity in the rat and mouse is low

acute toxicity, rat = conditions: in vivo
From the text: as §1

Structure (SMILES): CC(=O)Oc1ccccc1C(=O)O [Aspirin, reference compound]
ED50 (writhing): 45 mg/kg
ED50 (beer yeast induced fever; po): 140 mg/kg
gastric alterations (gastric mucous; oral, 1000 mg/kg): haemorrhage spots, congestion and oedema

Structure (SMILES): Cc1ccc(NC(=O)c2nc[nH]c2C)cc1Cl [Example 1, N-(3-chloro-4-methylphenyl)-5-methyl-4-imidazolecarboxamide]
ED50 (writhing; read-out: ED50): 30 mg/kg
analgesic action relative to aspirin (writhing; relative to aspirin): 1.5 times
ED50 (beer yeast induced fever; oral, read-out: ED50): 48 mg/kg
antipyretic activity relative to aspirin (beer yeast induced fever; relative to aspirin): three times that of aspirin
antipyretic activity relative to pyramidon (beer yeast induced fever; relative to pyramidon): slightly superior to that of pyramidon
solubility in acetone (solubility; acetone): soluble
solubility in an acid aqueous medium (solubility; acid aqueous medium): sparingly soluble
solubility in chloroform (solubility; chloroform): moderately soluble
solubility in ethanol (solubility; ethanol): soluble
solubility in isopropanol (solubility; isopropanol): soluble
solubility in methanol (solubility; methanol): soluble
solubility in toluene (solubility; toluene): insoluble
solubility in water (solubility; water): insoluble
ED50 (carrageenin oedema): 60 mg/kg
LD50 (acute toxicity, mouse; ip): 700 mg/kg
LD50 (acute toxicity, mouse; oral): > 8000 mg/kg
LD50 (acute toxicity, rat; ip): 560 mg/kg
LD50 (acute toxicity, rat; oral): > 12000 mg/kg

Structure (SMILES): COc1ccc(Cl)cc1NC(=O)c1nc[nH]c1C [Example 5a, N-(5-chloro-2-methoxyphenyl)-5-methyl-4-imidazolecarboxamide]
ED50 (carrageenin oedema): 78 mg/kg

Structure (SMILES): Cc1cc(NC(=O)c2nc[nH]c2C)ccc1[N+](=O)[O-] [Example 5b, N-(3-methyl-4-nitrophenyl)-5-methyl-4-imidazolecarboxamide]
ED50 (writhing; read-out: ED50): 35 mg/kg
ED50 (beer yeast induced fever; oral, read-out: ED50): 58 mg/kg

Structure (SMILES): Cc1ccc(F)cc1NC(=O)c1nc[nH]c1C [Example 5c, N-(5-fluoro-2-methylphenyl)-5-methyl-4-imidazolecarboxamide]
ED50 (writhing; read-out: ED50): 50 mg/kg

Structure (SMILES): Cc1[nH]cnc1C(=O)Nc1ccc(Cl)c([N+](=O)[O-])c1 [Example 5h, N-(4-chloro-3-nitrophenyl)-5-methyl-4-imidazolecarboxamide]
ED50 (writhing; read-out: ED50): 33 mg/kg

gastric alterations (gastric mucous; rat, in vivo, po, 200 mg/kg): haemorrhage spots, congestion and oedema
Structure (SMILES): CCCCC1C(=O)N(c2ccccc2)N(c2ccccc2)C1=O [Phenylbutazone, reference compound]
ED50 (carrageenin oedema): 45 mg/kg

Structure (SMILES): Cc1c(N(C)C)c(=O)n(-c2ccccc2)n1C [Pyramidon, reference compound]
ED50 (beer yeast induced fever; oral, read-out: ED50): 55 mg/kg
